Among the data in ChEMBL document CHEMBL1944551, “An integrated computational workflow for efficient and quantitative modeling of renin inhibitors” (Bioorg Med Chem, 2012) are logP values, retold here.

A short description of this data set: physchem. As to conditions: octanol/buffer.
Turning to `CC(C)(C)OCC(=O)NCCc1ccc(Cl)c(CN(C(=O)[C@H]2CNCC(=O)N2c2ccc(CCCOc3c(F)ccc(F)c3F)cc2)C2CC2)c1`, the logP worked out at 6.28. Next, `CNC(=O)Cc1ccc(Cl)c(CN(C(=O)[C@H]2CNCC(=O)N2c2ccc(OCCOc3c(Cl)cc(C)cc3Cl)cc2)C2CC2)c1`: 5.26. With `CNC(=O)Cc1ccc(Cl)c(CN(C(=O)[C@H]2CNCC(=O)N2c2ccc(OCCOc3c(Cl)cc(C)cc3Cl)nc2)C2CC2)c1` the figure was 4.43; with `CNC(=O)Cc1ccc(Cl)c(CN(C(=O)[C@H]2CNCC(=O)N2c2ccc(COC(=O)c3ccccc3)cc2)C2CC2)c1`, 4.15; with `CNC(=O)Cc1ccc(Cl)c(CN(C(=O)[C@H]2CNCC(=O)N2c2ccc(OCCCOCc3ccccc3)cc2)C2CC2)c1`, 4.53. On to `CNC(=O)Cc1ccc(Cl)c(CN(C(=O)[C@H]2CNCC(=O)N2c2ccc(OCCCOCc3ccccc3OC)cc2)C2CC2)c1`, for which the logP worked out at 4.48. With `CNC(=O)Cc1ccc(Cl)c(CN(C(=O)[C@H]2CNCC(=O)N2c2cnc(OCCCOCc3ccccc3OC)nc2)C2CC2)c1` the figure was 2.47. With `CNC(=O)Cc1ccc(Cl)c(CN(C(=O)[C@H]2CNCC(=O)N2c2ccc(CCCOc3cccc(Cl)c3)cc2)C2CC2)c1`, the logP came out at 5.33. With `CNC(=O)Cc1ccc(Cl)c(CN(C(=O)[C@H]2CNCC(=O)N2c2ccc(CCCOc3c(F)ccc(F)c3F)cc2)C2CC2)c1` the figure was 5.15; with `Cc1cc(Cl)c(OCCOc2ccc(N3C(=O)CNC[C@@H]3C(=O)N(C)Cc3ccccc3Cl)cc2)c(Cl)c1`, 5.18; with `Cc1cc(Cl)c(OCCOc2ccc(N3C(=O)CNC[C@@H]3C(=O)N(C)Cc3ccccc3Cl)cn2)c(Cl)c1`, 4.35. Next, `CN(Cc1ccccc1Cl)C(=O)[C@H]1CNCC(=O)N1c1ccc(OCCCOCc2ccccc2)cc1`: 4.45.

For `COc1ccccc1COCCCOc1ccc(N2C(=O)CNC[C@@H]2C(=O)N(C)Cc2ccccc2Cl)cc1`, the logP came out at 4.41.

In turn, `COc1ccccc1COCCCOc1ncc(N2C(=O)CNC[C@@H]2C(=O)N(C)Cc2ccccc2Cl)cn1` displayed a logP of 2.4. Next, `CN(Cc1ccccc1Cl)C(=O)[C@H]1CNCC(=O)N1c1ccc(CCCOc2cccc(Cl)c2)cc1`: 5.25; `CN(Cc1ccccc1Cl)C(=O)[C@H]1CNCC(=O)N1c1ccc(CCCOc2c(F)ccc(F)c2F)cc1`: 5.07; `Cc1cc(Cl)c(OCCOc2ccc(N3C(=O)CNC[C@@H]3C(=O)NCc3ccccc3Cl)cc2)c(Cl)c1`: 4.98.

`Cc1cc(Cl)c(OCCOc2ccc(N3C(=O)CNC[C@@H]3C(=O)NCc3ccccc3Cl)cn2)c(Cl)c1` yielded a logP of 4.15. Next, `O=C(OCc1ccc(N2C(=O)CNC[C@@H]2C(=O)NCc2ccccc2Cl)cc1)c1ccccc1`: 3.88.

Molecule `O=C(NCc1ccccc1Cl)[C@H]1CNCC(=O)N1c1ccc(OCCCOCc2ccccc2)cc1` gave a log partition coefficient (logP) of 4.26. With `COc1ccccc1COCCCOc1ccc(N2C(=O)CNC[C@@H]2C(=O)NCc2ccccc2Cl)cc1` the figure was 4.21. `O=C(NCc1ccccc1Cl)[C@H]1CNCC(=O)N1c1ccc(CCCOc2cccc(Cl)c2)cc1`: the logP worked out at 5.05.

As to `O=C(NCc1ccccc1Cl)[C@H]1CNCC(=O)N1c1ccc(CCCOc2c(F)ccc(F)c2F)cc1`, the logP is 4.88. The molecule `Cc1cc(Cl)c(OCCOc2ccc(N3C(=O)CNC[C@@H]3C(=O)N(C)Cc3ccccc3)cc2)c(Cl)c1` had a logP of 4.59. In turn, `Cc1cc(Cl)c(OCCOc2ccc(N3C(=O)CNC[C@@H]3C(=O)N(C)Cc3ccccc3)cn2)c(Cl)c1` showed a logP of 3.76.

The molecule `CN(Cc1ccccc1)C(=O)[C@H]1CNCC(=O)N1c1ccc(COC(=O)c2ccccc2)cc1` came in with a logP of 3.49. Next, `CN(Cc1ccccc1)C(=O)[C@H]1CNCC(=O)N1c1ccc(OCCCOCc2ccccc2)cc1`: 3.86.

Molecule `COc1ccccc1COCCCOc1ccc(N2C(=O)CNC[C@@H]2C(=O)N(C)Cc2ccccc2)cc1` yielded a logP of 3.82.

Turning to `COc1ccccc1COCCCOc1ncc(N2C(=O)CNC[C@@H]2C(=O)N(C)Cc2ccccc2)cn1`, the logP is 1.8. `CN(Cc1ccccc1)C(=O)[C@H]1CNCC(=O)N1c1ccc(CCCOc2cccc(Cl)c2)cc1` came in with a logP of 4.66. Regarding `CN(Cc1ccccc1)C(=O)[C@H]1CNCC(=O)N1c1ccc(CCCOc2c(F)ccc(F)c2F)cc1`, the logP was 4.49.

`Cc1cc(Cl)c(OCCOc2ccc(N3C(=O)CNC[C@@H]3C(=O)N(Cc3cccc(Cl)c3)C3CC3)cc2)c(Cl)c1` showed a logP of 5.87. For `Cc1cc(Cl)c(OCCOc2ccc(N3C(=O)CNC[C@@H]3C(=O)N(Cc3cccc(Cl)c3)C3CC3)cn2)c(Cl)c1`, the logP was found to be 5.04. For the molecule `O=C(OCc1ccc(N2C(=O)CNC[C@@H]2C(=O)N(Cc2cccc(Cl)c2)C2CC2)cc1)c1ccccc1`, the logP turned out to be 4.77. With `O=C([C@H]1CNCC(=O)N1c1ccc(OCCCOCc2ccccc2)cc1)N(Cc1cccc(Cl)c1)C1CC1` the figure was 5.14. `COc1ccccc1COCCCOc1ccc(N2C(=O)CNC[C@@H]2C(=O)N(Cc2cccc(Cl)c2)C2CC2)cc1` yielded a logP of 5.1. Turning to `COc1ccccc1COCCCOc1ncc(N2C(=O)CNC[C@@H]2C(=O)N(Cc2cccc(Cl)c2)C2CC2)cn1`, the logP worked out at 3.09. With `O=C([C@H]1CNCC(=O)N1c1ccc(CCCOc2cccc(Cl)c2)cc1)N(Cc1cccc(Cl)c1)C1CC1` the figure was 5.94. Next, `O=C([C@H]1CNCC(=O)N1c1ccc(CCCOc2c(F)ccc(F)c2F)cc1)N(Cc1cccc(Cl)c1)C1CC1`: 5.77; `Cc1cc(Cl)c(OCCOc2ccc(N3C(=O)CNC[C@@H]3C(=O)N(Cc3cccc(C)c3C)C3CC3)cc2)c(Cl)c1`: 5.83; `Cc1cc(Cl)c(OCCOc2ccc(N3C(=O)CNC[C@@H]3C(=O)N(Cc3cccc(C)c3C)C3CC3)cn2)c(Cl)c1`: 5.01. Next, `Cc1cccc(CN(C(=O)[C@H]2CNCC(=O)N2c2ccc(COC(=O)c3ccccc3)cc2)C2CC2)c1C`: 4.73. On to `Cc1cccc(CN(C(=O)[C@H]2CNCC(=O)N2c2ccc(OCCCOCc3ccccc3)cc2)C2CC2)c1C`, for which the logP was 5.11. Molecule `COc1ccccc1COCCCOc1ccc(N2C(=O)CNC[C@@H]2C(=O)N(Cc2cccc(C)c2C)C2CC2)cc1` yielded a logP of 5.06. `COc1ccccc1COCCCOc1ncc(N2C(=O)CNC[C@@H]2C(=O)N(Cc2cccc(C)c2C)C2CC2)cn1` showed a logP of 3.05. With `Cc1cccc(CN(C(=O)[C@H]2CNCC(=O)N2c2ccc(CCCOc3cccc(Cl)c3)cc2)C2CC2)c1C`, the logP stood at 5.91. Next, `Cc1cccc(CN(C(=O)[C@H]2CNCC(=O)N2c2ccc(CCCOc3c(F)ccc(F)c3F)cc2)C2CC2)c1C`: 5.73; `COc1cccc(CN(C(=O)[C@H]2CNCC(=O)N2c2ccc(OCCOc3c(Cl)cc(C)cc3Cl)cc2)C2CC2)c1C`: 5.49; `COc1cccc(CN(C(=O)[C@H]2CNCC(=O)N2c2ccc(OCCOc3c(Cl)cc(C)cc3Cl)nc2)C2CC2)c1C`: 4.66. With `COc1cccc(CN(C(=O)[C@H]2CNCC(=O)N2c2ccc(COC(=O)c3ccccc3)cc2)C2CC2)c1C` the figure was 4.39. Regarding `COc1ccccc1COCCCOc1ccc(N2C(=O)CNC[C@@H]2C(=O)N(Cc2cc(CNC3CC3)ccc2Cl)C2CC2)cc1`, the logP was 5.53. With `COc1ccccc1COCCCOc1ncc(N2C(=O)CNC[C@@H]2C(=O)N(Cc2cc(CNC3CC3)ccc2Cl)C2CC2)cn1` the figure was 3.52; with `O=C([C@H]1CNCC(=O)N1c1ccc(CCCOc2cccc(Cl)c2)cc1)N(Cc1cc(CNC2CC2)ccc1Cl)C1CC1`, 6.38; with `O=C([C@H]1CNCC(=O)N1c1ccc(CCCOc2c(F)ccc(F)c2F)cc1)N(Cc1cc(CNC2CC2)ccc1Cl)C1CC1`, 6.2. The molecule `Cc1cc(Cl)c(OCCOc2ccc(N3C(=O)CNC[C@@H]3C(=O)N(Cc3cc(CCNC(=O)CC(F)(F)F)ccc3Cl)C3CC3)cc2)c(Cl)c1` came in with a logP of 6.11.

For the molecule `Cc1cc(Cl)c(OCCOc2ccc(N3C(=O)CNC[C@@H]3C(=O)N(Cc3cc(CCNC(=O)CC(F)(F)F)ccc3Cl)C3CC3)cn2)c(Cl)c1`, the logP was found to be 5.28. `O=C(CC(F)(F)F)NCCc1ccc(Cl)c(CN(C(=O)[C@H]2CNCC(=O)N2c2ccc(COC(=O)c3ccccc3)cc2)C2CC2)c1` showed a logP of 5. Molecule `O=C(CC(F)(F)F)NCCc1ccc(Cl)c(CN(C(=O)[C@H]2CNCC(=O)N2c2ccc(OCCCOCc3ccccc3)cc2)C2CC2)c1` came in with a logP of 5.38. With `COc1ccccc1COCCCOc1ccc(N2C(=O)CNC[C@@H]2C(=O)N(Cc2cc(CCNC(=O)CC(F)(F)F)ccc2Cl)C2CC2)cc1` the figure was 5.33; with `COc1ccccc1COCCCOc1ncc(N2C(=O)CNC[C@@H]2C(=O)N(Cc2cc(CCNC(=O)CC(F)(F)F)ccc2Cl)C2CC2)cn1`, 3.32; with `O=C(CC(F)(F)F)NCCc1ccc(Cl)c(CN(C(=O)[C@H]2CNCC(=O)N2c2ccc(CCCOc3cccc(Cl)c3)cc2)C2CC2)c1`, 6.18. With `O=C(CC(F)(F)F)NCCc1ccc(Cl)c(CN(C(=O)[C@H]2CNCC(=O)N2c2ccc(CCCOc3c(F)ccc(F)c3F)cc2)C2CC2)c1` the figure was 6; with `Cc1cc(Cl)c(OCCOc2ccc(N3C(=O)CNC[C@@H]3C(=O)N(Cc3cc(CCNC(=O)COC(C)(C)C)ccc3Cl)C3CC3)cc2)c(Cl)c1`, 6.38. With `Cc1cc(Cl)c(OCCOc2ccc(N3C(=O)CNC[C@@H]3C(=O)N(Cc3cc(CCNC(=O)COC(C)(C)C)ccc3Cl)C3CC3)cn2)c(Cl)c1` the figure was 5.56; with `CC(C)(C)OCC(=O)NCCc1ccc(Cl)c(CN(C(=O)[C@H]2CNCC(=O)N2c2ccc(COC(=O)c3ccccc3)cc2)C2CC2)c1`, 5.28. Regarding `CC(C)(C)OCC(=O)NCCc1ccc(Cl)c(CN(C(=O)[C@H]2CNCC(=O)N2c2ccc(OCCCOCc3ccccc3)cc2)C2CC2)c1`, the logP was 5.66. For the molecule `COc1ccccc1COCCCOc1ccc(N2C(=O)CNC[C@@H]2C(=O)N(Cc2cc(CCNC(=O)COC(C)(C)C)ccc2Cl)C2CC2)cc1`, the logP was determined as 5.61. Next, `COc1ccccc1COCCCOc1ncc(N2C(=O)CNC[C@@H]2C(=O)N(Cc2cc(CCNC(=O)COC(C)(C)C)ccc2Cl)C2CC2)cn1`: 3.6. With `CC(C)(C)OCC(=O)NCCc1ccc(Cl)c(CN(C(=O)[C@H]2CNCC(=O)N2c2ccc(CCCOc3cccc(Cl)c3)cc2)C2CC2)c1` the figure was 6.46.
